Where a name gives a salt, the structure may show the parent alone.
Legend:
insulin promoter [1] = assay: Insulin promoter/reporter screen in the presence of a fatty acid (reversal of palmitate-induced lipotoxicity); type: cell-based, human; details: screen in presence of fatty acid (FIG. 20) vs not in presence (FIG. 19)
Excerpt: The assays employ a cell line derived from human fetal islet cells (T6PNE) in which the cells are infected with a promoter/reporter construct. The construct is shown in FIG. 7 and incorporates an insulin promoter operably linked to an eGFP. Cells were infected and plated, and candidate libraries screened and “hit” detected as discussed in Example 1.
To differentiate between agents that specifically act to reverse lipotoxicity as compared to generally increasing transcription of insulin a two layer screening approach was utilized. In the first layer, islet cells infected with an insulin promoter/reporter construct are screened in the absence of a fatty acid. A “hit” indicates an agent that is capable of increasing insulin transcription. In the second layer, islet cells infected with an insulin promoter/reporter construct are screened in the presence of a fatty acid. A “hit” indicates a drug that reverses the effects of the fatty acid addition, for example reduction of insulin transcription. This drugs screened in both layers may be used to identify whether the drug is specific to lipotoxicity reversal. For example, drugs that are “hits” in the second layer screen but not in the first layer screen are specific to lipotoxicity reversal.

insulin promoter [2] = assay: HTS insulin promoter/eGFP reporter screen in T6PNE cells (absence of fatty acid); type: cell-based, human; details: for activator of insulin promoter confirmed in confirmatory screen: repeat of initial screen with dose response, T6PNE cells, insulin promoter-eGFP
Description: A library of 1000 candidate drug compounds was initially screened using NEPCs cultured in a 384-well HTS format using the following method. NEPCs were infected with promoter/reporter constructs in suspension for 6 hours. The cells were then directly plated on Collagen I coated 384-well microtiter plates in media containing 10% plasma. Monolayer formation was allowed to progress by culture for 4 days with regular media changes. Library compounds were then contacted with the cells and added at a final concentration of 5 μM and incubated for 48 hours. Image analysis was then performed using fluorescent microscopy using DAPI […] and imaging of GFP to determine promoter activation activity of individual compounds. Image analysis algorithms are further refined to eliminate auto-fluorescent debris to accurately quantify green fluorescence. The assays employ a cell line derived from human fetal islet cells ([…]) in which the cells are infected with a promoter/reporter construct. The construct is shown in FIG. 7 and incorporates an insulin promoter operably linked to an eGFP. Cells were infected and plated, and candidate libraries screened and “hit” detected as discussed in Example 1. To differentiate between agents that specifically act to reverse lipotoxicity as compared to generally increasing transcription of insulin a two layer screening approach was utilized. In the first layer, islet cells infected with an insulin promoter/reporter construct are screened in the absence of a fatty acid. A “hit” indicates an agent that is capable of increasing insulin transcription. In the second layer, islet cells infected with an insulin promoter/reporter construct are screened in the presence of a fatty acid. A “hit” indicates a drug that reverses the effects of the fatty acid addition, for example reduction of insulin transcription. This drugs screened in both layers may be used to identify whether the drug is specific to lipotoxicity reversal. For example, drugs that are “hits” in the second layer screen but not in the first layer screen are specific to lipotoxicity reversal. […]

| SMILES | reversal of palmitate-induced lipotoxicity (insulin promoter [1]) | other results |
| --- | --- | --- |
| CC(=O)Oc1c(C)c(C)c2c(c1C)CCC(C)(CCC[C@H](C)CCC[C@H](C)CCCC(C)C)O2 (stereo partly drawn) [alpha-tocopheryl acetate] | expected to reverse lipotoxicity |  |
| CC(Cc1cccc(C(F)(F)F)c1)NCCOC(=O)c1ccccc1 (stereo not drawn) [benfluorex hydrochloride] | expected to reverse lipotoxicity |  |
| CC1=C(/C=C/C(C)=C/C=C/C(C)=C/C=C/C=C(C)/C=C/C=C(C)/C=C/C2=C(C)CCCC2(C)C)C(C)(C)CCC1 [beta-carotene] | expected to reverse lipotoxicity |  |
| CN(C)CCCN1c2ccccc2Sc2ccc(Cl)cc21 [chlorpromazine] |  | activator of insulin promoter confirmed in confirmatory screen (insulin promoter [2]): confirmed |
| Clc1ccc(C(OCCN2CCCCC2)c2ccccc2)cc1 (stereo not drawn) [cloperastine hydrochloride] | expected to reverse lipotoxicity |  |
| NCCc1ccc(O)c(O)c1 [dopamine] |  | upregulation of the insulin promoter (insulin promoter [2]; ChemBridge DiverSet library screen as in Example 2): upregulated the insulin promoter |
| CCN(CC)C(C)CN1c2ccccc2Sc2ccccc21 (stereo not drawn) [ethopropazine] |  | activator of insulin promoter confirmed in confirmatory screen (insulin promoter [2]): confirmed |
| CC[C@H](C)C(=O)O[C@H]1C[C@@H](C)C=C2C=C[C@H](C)[C@H](CC[C@@H]3C[C@@H](O)CC(=O)O3)[C@H]21 [lovastatin] | expected to reverse lipotoxicity |  |
| Cc1cccc(Nc2ccccc2C(=O)O)c1C [mefenamic acid] | expected to reverse lipotoxicity |  |

Reference: US8168391B2, “Method for modulating insulin production” (Burnham Institute for Medical Research, priority 2007, dated 2012)
